Literature values in paper PMC2637266, “Quantification of gamma-secretase modulation differentiates inhibitor compound selectivity between two substrates Notch and amyloid precursor protein” (Molecular Brain, 2008).

How the values were obtained:
plasma Aβ40 = tested on: plasma Aβ40; set-up: method as in PMID 18090456, PMID 16505324, PMID 18695053; conditions: AD patients; cited from earlier work
[1] = tested on: γ-secretase substrates APP, ErbB-4, and Notch; set-up: method as in PMID 12777371; conditions: cited from earlier work

Compound	plasma Aβ40 (plasma Aβ40)	tolerability (plasma Aβ40)	generation of intracellular domains (ICDs) of APP, ErbB-4, and Notch [1]	cleavage of γ-secretase substrates at the middle of transmembrane domain [1]
CC(C)[C@H](O)C(=O)N[C@@H](C)C(=O)N[C@@H]1C(=O)N(C)CCc2ccccc21.O.O [LY450139 dihydrate]	reduces plasma Aβ40	well tolerated	–	–
CC(C)Cc1ccc(C(C)C(=O)O)cc1 (stereo not shown) [ibuprofen]	–	–	without affecting the generation	–
COc1ccc2c(c1)c(CC(=O)O)c(C)n2C(=O)c1ccc(Cl)cc1 [indomethacin]	–	–	without affecting the generation	specifically block the cleavage
CSc1ccc(/C=C2/C(C)=C(CC(=O)O)c3cc(F)ccc32)cc1 [sulindac sulphide]	–	–	without affecting the generation	specifically block the cleavage
